Test results reported in patent publication US7452904B2, “1-alkyl-1-azoniabicyclo' 2.2.2 octane carbamate derivatives and their use as muscarinic receptor antagonists” (Chiesi Farmaceutici S.p.A., priority 2001, dated 2008).

How the values were obtained:
human M2 receptors = target: T1, human M2 receptors (Homo sapiens, UniProt P08172); assay: Binding test to human M2 muscarinic receptor ([3H]-NMS displacement), reported as M2/M3 selectivity; conditions: ratio of Ki at cloned human M2 versus M3 receptors; ratios greater than 1 indicate M3 selective activity
T1 construct: expressed in transfected cells; host or cells: CHO-K1
T1 sequence (P08172 1-466): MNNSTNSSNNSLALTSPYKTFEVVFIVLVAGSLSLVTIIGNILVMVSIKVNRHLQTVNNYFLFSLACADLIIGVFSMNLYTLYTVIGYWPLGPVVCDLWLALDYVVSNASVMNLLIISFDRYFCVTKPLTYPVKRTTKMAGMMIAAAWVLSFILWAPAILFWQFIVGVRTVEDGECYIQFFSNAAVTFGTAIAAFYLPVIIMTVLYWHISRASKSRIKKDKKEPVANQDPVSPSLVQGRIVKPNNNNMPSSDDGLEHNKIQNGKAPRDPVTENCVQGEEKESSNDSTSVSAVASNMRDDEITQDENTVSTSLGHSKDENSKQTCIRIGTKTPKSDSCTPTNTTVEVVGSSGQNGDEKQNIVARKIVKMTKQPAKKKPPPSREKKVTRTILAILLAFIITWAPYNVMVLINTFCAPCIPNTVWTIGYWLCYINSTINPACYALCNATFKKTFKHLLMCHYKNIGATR
Procedure: (§1) Binding Test to Human M2 and M3 Muscarinic Receptors
(§2) Membranes from CHO—K1 cells transfected with human M2 or M3 receptors were used. The summarised experimental procedure for both receptors was the following: cell membranes (15-20 μg) were incubated with [^3H]-NMS (0.3-0.5 nM) for 60 min at 25° C., in presence or absence of the antagonists. Incubation was carried out in 96 wells polystyrene microplates in a total incubation volume of 0.2 mL of PBS pH 7.4. Non specific binding was determined in parallel assays in presence of atropine (5 μM). Samples were filtered through type GF/C glass fibre, preincubated with PEI 0.3%. Filters were washed 3-4 times with 50 mM Tris-HCl, 0.9% NaCl, pH 7.4 at 4° C., and dried at 50° C. for 45 min. Filter bound radioactivity was quantified by liquid scintillation counting.
(§3) For the calculation of the inhibition constant (Ki), displacement curves were analysed by non-linear regression (GraphPad Prism). Dissociation constant (Kd) of [^3H]-NMS for each receptor was obtained through the saturation curves obtained in the same conditions as the experiments carried out with the corresponding antagonists.

human M3 receptors = target: T2, human M3 receptors (Homo sapiens, UniProt P20309); assay: Binding test to human M3 muscarinic receptor ([3H]-NMS displacement); conditions: membranes from CHO-K1 cells transfected with human M3 receptor; [3H]-NMS 0.3-0.5 nM, 60 min, 25° C.; mean of two independent experiments, each in duplicate
T2 construct: expressed in transfected cells; host or cells: CHO-K1
Procedure: as §1, §2, §3

T2 sequence (P20309 whole entry): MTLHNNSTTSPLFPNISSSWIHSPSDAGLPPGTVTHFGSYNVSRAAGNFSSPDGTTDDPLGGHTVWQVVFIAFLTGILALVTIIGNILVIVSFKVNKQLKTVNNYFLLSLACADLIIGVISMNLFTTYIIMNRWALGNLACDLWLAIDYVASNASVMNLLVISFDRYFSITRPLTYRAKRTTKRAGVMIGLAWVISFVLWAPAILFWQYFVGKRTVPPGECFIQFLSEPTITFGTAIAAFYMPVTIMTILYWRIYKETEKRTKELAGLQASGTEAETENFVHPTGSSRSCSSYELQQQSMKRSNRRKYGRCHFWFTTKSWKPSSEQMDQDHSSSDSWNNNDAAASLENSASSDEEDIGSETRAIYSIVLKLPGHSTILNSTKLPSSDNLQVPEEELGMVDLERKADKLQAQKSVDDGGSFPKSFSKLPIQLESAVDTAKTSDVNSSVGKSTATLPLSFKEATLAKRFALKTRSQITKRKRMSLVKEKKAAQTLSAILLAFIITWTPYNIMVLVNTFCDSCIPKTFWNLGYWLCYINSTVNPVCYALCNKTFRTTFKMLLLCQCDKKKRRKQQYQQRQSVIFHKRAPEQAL

Compound	M2/M3 (ratio) (human M2 receptors)	Ki (human M3 receptors)
O=C(O[C@H]1C[N+]2(CCCOc3ccccc3)CCC1CC2)N(Cc1ccc(F)cc1)c1ccccc1.[Br-] [Ex. 11, (R)-3-[(4-Fluorobenzyl)phenylcarbamoyloxy]-1-(3-phenoxypropyl)-1-azoniabicyclo[2.2.2]octane; bromide]	80 ratio	0.34 nM
O=C(O[C@H]1C[N+]2(CCSc3ccccc3)CCC1CC2)N(Cc1cc(F)c(F)c(F)c1)c1ccccc1F.[Cl-] [Ex. 50, (R)-3-[(2-Fluorophenyl)-(3,4,5-trifluorobenzyl)carbamoyloxy]-1-(2-phenylsulfanylethyl)-1-azoniabicyclo[2.2.2]octane; chloride]	345 ratio	0.06 nM
O=C(C[N+]12CCC(CC1)[C@@H](OC(=O)N(Cc1ccsc1)c1cccc(F)c1)C2)c1ccccc1.[Br-] [Ex. 69, (R)-3-[(3-Fluorophenyl)thiophen-3-ylmethylcarbamoyloxy]-1(2-oxo-2-phenylethyl)-1-azoniabicyclo[2.2.2]octane; bromide]	32 ratio	0.02 nM
Cl.O=C(O[C@H]1CN2CCC1CC2)N(Cc1ccc(Cl)s1)c1cccc(F)c1 [Int. 29, (R)-(5-Chlorothiophen-2-ylmethyl)-(3-fluorophenyl)carbamic acid 1-azabicyclo[2.2.2]oct-3-yl ester; hydrochloride]	105 ratio	0.02 nM
Cc1cccc(N(Cc2ccsc2)C(=O)O[C@H]2CN3CCC2CC3)c1.Cl [Int. 32, (R)-Thiophen-3-ylmethyl-m-tolylcarbamic acid 1-azabicyclo[2.2.2]oct-3-yl ester; hydrochloride]	23 ratio	0.15 nM
O=C(O[C@H]1CN2CCC1CC2)N1CCc2ccccc2[C@@H]1c1ccccc1 [SOLIFENACIN, solifenacin, reference compound]	10 ratio	8.3 nM
